Test results published in ChEMBL document CHEMBL4311942, “Design of Trp-Rich Dodecapeptides with Broad-Spectrum Antimicrobial Potency and Membrane-Disruptive Mechanism” (J Med Chem, 2019).
Converted amounts (≈) assume the structure as drawn. Where a SMILES comes first, the peptide text is derived from it.

Legend:
Escherichia coli [1] = assay: Antibacterial activity against Escherichia coli UB1005 incubated for 18 to 24 hrs by broth microdilution method; format: functional
Staphylococcus aureus [2] = assay: Antibacterial activity against Staphylococcus aureus ATCC 29213 incubated for 18 to 24 hrs by broth microdilution method; format: functional
Escherichia coli [3] = assay: Antibacterial activity against Escherichia coli 20411 clinical isolate incubated for 18 to 24 hrs by broth microdilution method; format: functional
Escherichia coli [4] = assay: Antibacterial activity against Escherichia coli ATCC 25922 incubated for 18 to 24 hrs by broth microdilution method; format: functional
Staphylococcus aureus [5] = assay: Antibacterial activity against Staphylococcus aureus ATCC 25923 incubated for 18 to 24 hrs by broth microdilution method; format: functional
Acinetobacter baumannii [6] = assay: Antibacterial activity against Acinetobacter baumannii AB1902 clinical isolate incubated for 18 to 24 hrs by broth microdilution method; format: functional
[7] = tested on: Staphylococcus epidermidis; assay: Antibacterial activity against Staphylococcus epidermidis ATCC 12228 incubated for 18 to 24 hrs by broth microdilution method; format: functional
[8] = Cytotoxicity against mouse RAW264.7 cells assessed as cell survival at < 32 uM after 24 hrs by MTT assay; format: cell-based; settings: read-out: Activity
Erythrocyte = assay: Haemolytic activity in human erythrocytes assessed as lowest concentration causing 5% hemolysis after 1 hr; format: ADME, cell-based
[9] = Therapeutic index, ratio of MHC for human RBC to geometric mean of peptide MIC for Escherichia coli ATCC 25922; format: toxicity; settings: pooled result: one value given for 6 cell lines, strains, targets or settings, read-out: TI
Salmonella typhimurium = assay: Antibacterial activity against Salmonella enterica serovar typhimurium C77-31 incubated for 18 to 24 hrs by broth microdilution method; format: functional, Salmonella enterica subsp. enterica serovar Typhimurium
Pseudomonas aeruginosa = assay: Antibacterial activity against Pseudomonas aeruginosa 25349 clinical isolate incubated for 18 to 24 hrs by broth microdilution method; format: functional
Acinetobacter baumannii [10] = assay: Antibacterial activity against Acinetobacter baumannii AB1901 clinical isolate incubated for 18 to 24 hrs by broth microdilution method; format: functional
Staphylococcus aureus [11] = assay: Antibacterial activity against Staphylococcus aureus 11011 incubated for 18 to 24 hrs by broth microdilution method; format: functional

Structure (SMILES) | MIC (Escherichia coli [1]) [µM] | MIC (Staphylococcus aureus [2]) [µM] | MIC (Escherichia coli [3]) [µM] | MIC (Escherichia coli [4]) [µM] | MIC (Staphylococcus aureus [5]) [µM] | MIC (Acinetobacter baumannii [6]) [µM] | MIC [7] [µM] | viability at 24 h [8] [%] | MHC (Erythrocyte) [µM] | selectivity ratio [9] | MIC (Salmonella typhimurium) [µM] | MIC (Pseudomonas aeruginosa) [µM] | MIC (Acinetobacter baumannii [10]) [µM] | MIC (Staphylococcus aureus [11]) [µM]
CC[C@H](C)[C@H](NC(=O)[C@H](CCCCN)NC(=O)[C@H](Cc1c[nH]c2ccccc12)NC(=O)[C@H](CCCCN)NC(=O)[C@@H](NC(=O)[C@H](CCCCN)NC(=O)[C@H](Cc1c[nH]c2ccccc12)NC(=O)[C@H](CCCCN)NC(=O)[C@@H](NC(=O)[C@H](CCCCN)NC(=O)[C@@H](N)Cc1c[nH]c2ccccc12)[C@@H](C)CC)[C@@H](C)CC)C(=O)N[C@@H](CCCCN)C(N)=O (H-WKIKWKIKWKIK-NH2) | 2 (≈ 3.37 µg/mL) | 2 (≈ 3.37 µg/mL) | 2 (≈ 3.37 µg/mL) | 2 (≈ 3.37 µg/mL) | 2 (≈ 3.37 µg/mL) | 2 (≈ 3.37 µg/mL) | 2 (≈ 3.37 µg/mL) | > 90 | 64 | 32 | 2 (≈ 3.37 µg/mL) | 4 (≈ 6.74 µg/mL) | 1 (≈ 1.68 µg/mL) | 2 (≈ 3.37 µg/mL)
CC(C)C[C@H](NC(=O)[C@H](CCCCN)NC(=O)[C@H](Cc1c[nH]c2ccccc12)NC(=O)[C@H](CCCCN)NC(=O)[C@H](CC(C)C)NC(=O)[C@H](CCCCN)NC(=O)[C@H](Cc1c[nH]c2ccccc12)NC(=O)[C@H](CCCCN)NC(=O)[C@H](CC(C)C)NC(=O)[C@H](CCCCN)NC(=O)[C@@H](N)Cc1c[nH]c2ccccc12)C(=O)N[C@@H](CCCCN)C(N)=O (H-WKLKWKLKWKLK-NH2) | 4 (≈ 6.74 µg/mL) | 2 (≈ 3.37 µg/mL) | 2 (≈ 3.37 µg/mL) | 4 (≈ 6.74 µg/mL) | 2 (≈ 3.37 µg/mL) | 4 (≈ 6.74 µg/mL) | 2 (≈ 3.37 µg/mL) | > 90 | 128 | 50.8 | 2 (≈ 3.37 µg/mL) | 4 (≈ 6.74 µg/mL) | 2 (≈ 3.37 µg/mL) | 2 (≈ 3.37 µg/mL)
CC(C)[C@H](NC(=O)[C@H](CCCCN)NC(=O)[C@H](Cc1c[nH]c2ccccc12)NC(=O)[C@H](CCCCN)NC(=O)[C@@H](NC(=O)[C@H](CCCCN)NC(=O)[C@H](Cc1c[nH]c2ccccc12)NC(=O)[C@H](CCCCN)NC(=O)[C@@H](NC(=O)[C@H](CCCCN)NC(=O)[C@@H](N)Cc1c[nH]c2ccccc12)C(C)C)C(C)C)C(=O)N[C@@H](CCCCN)C(N)=O (H-WKVKWKVKWKVK-NH2) | 2 (≈ 3.28 µg/mL) | 1 (≈ 1.64 µg/mL) | 1 (≈ 1.64 µg/mL) | 2 (≈ 3.28 µg/mL) | 2 (≈ 3.28 µg/mL) | 1 (≈ 1.64 µg/mL) | 2 (≈ 3.28 µg/mL) | > 90 | > 128 | 144 | 2 (≈ 3.28 µg/mL) | 4 (≈ 6.57 µg/mL) | 2 (≈ 3.28 µg/mL) | 2 (≈ 3.28 µg/mL)
C[C@@H](O)[C@H](NC(=O)[C@H](CCCCN)NC(=O)[C@H](Cc1c[nH]c2ccccc12)NC(=O)[C@H](CCCNC(=N)N)NC(=O)[C@H](Cc1ccccc1)NC(=O)[C@H](CCCNC(=N)N)NC(=O)[C@@H](N)Cc1c[nH]c2ccccc12)C(=O)N[C@@H](CCCNC(=N)N)C(=O)N[C@@H](Cc1c[nH]c2ccccc12)C(=O)N[C@@H](CCCNC(=N)N)C(=O)N[C@@H](Cc1ccccc1)C(=O)N[C@@H](CCCCN)C(N)=O (H-WRFRWKTRWRFK-NH2) | 4 (≈ 7.41 µg/mL) | 2 (≈ 3.7 µg/mL) | 2 (≈ 3.7 µg/mL) | 4 (≈ 7.41 µg/mL) | 2 (≈ 3.7 µg/mL) | 4 (≈ 7.41 µg/mL) | 2 (≈ 3.7 µg/mL) | > 90 | > 128 | 102 | 2 (≈ 3.7 µg/mL) | 8 (≈ 14.8 µg/mL) | 2 (≈ 3.7 µg/mL) | 2 (≈ 3.7 µg/mL)
N=C(N)NCCC[C@H](NC(=O)[C@H](Cc1ccccc1)NC(=O)[C@H](CCCNC(=N)N)NC(=O)[C@H](Cc1c[nH]c2ccccc12)NC(=O)[C@H](CCCNC(=N)N)NC(=O)[C@H](Cc1ccccc1)NC(=O)[C@H](CCCNC(=N)N)NC(=O)[C@H](Cc1c[nH]c2ccccc12)NC(=O)[C@H](CCCNC(=N)N)NC(=O)[C@H](Cc1ccccc1)NC(=O)[C@H](CCCNC(=N)N)NC(=O)[C@@H](N)Cc1c[nH]c2ccccc12)C(N)=O (H-WRFRWRFRWRFR-NH2) | 4 (≈ 7.82 µg/mL) | 1 (≈ 1.95 µg/mL) | 4 (≈ 7.82 µg/mL) | 8 (≈ 15.6 µg/mL) | 1 (≈ 1.95 µg/mL) | 2 (≈ 3.91 µg/mL) | 2 (≈ 3.91 µg/mL) | > 90 | 64 | 28.6 | 2 (≈ 3.91 µg/mL) | 8 (≈ 15.6 µg/mL) | 2 (≈ 3.91 µg/mL) | 2 (≈ 3.91 µg/mL)
CC[C@H](C)[C@H](NC(=O)[C@H](CCCNC(=N)N)NC(=O)[C@H](Cc1c[nH]c2ccccc12)NC(=O)[C@H](CCCNC(=N)N)NC(=O)[C@@H](NC(=O)[C@H](CCCCN)NC(=O)[C@H](Cc1c[nH]c2ccccc12)NC(=O)[C@H](CCCNC(=N)N)NC(=O)[C@@H](NC(=O)[C@H](CCCNC(=N)N)NC(=O)[C@@H](N)Cc1c[nH]c2ccccc12)[C@@H](C)CC)[C@@H](C)O)C(=O)N[C@@H](CCCCN)C(N)=O (H-WRIRWKTRWRIK-NH2) | 2 (≈ 3.57 µg/mL) | 2 (≈ 3.57 µg/mL) | 2 (≈ 3.57 µg/mL) | 4 (≈ 7.14 µg/mL) | 2 (≈ 3.57 µg/mL) | 2 (≈ 3.57 µg/mL) | 2 (≈ 3.57 µg/mL) | > 90 | > 128 | 114 | 2 (≈ 3.57 µg/mL) | 8 (≈ 14.3 µg/mL) | 2 (≈ 3.57 µg/mL) | 2 (≈ 3.57 µg/mL)
CC(C)C[C@H](NC(=O)[C@H](CCCNC(=N)N)NC(=O)[C@H](Cc1c[nH]c2ccccc12)NC(=O)[C@H](CCCNC(=N)N)NC(=O)[C@H](CC(C)C)NC(=O)[C@H](CCCNC(=N)N)NC(=O)[C@H](Cc1c[nH]c2ccccc12)NC(=O)[C@H](CCCNC(=N)N)NC(=O)[C@H](CC(C)C)NC(=O)[C@H](CCCNC(=N)N)NC(=O)[C@@H](N)Cc1c[nH]c2ccccc12)C(=O)N[C@@H](CCCNC(=N)N)C(N)=O (H-WRLRWRLRWRLR-NH2) | 2 (≈ 3.7 µg/mL) | 1 (≈ 1.85 µg/mL) | 2 (≈ 3.7 µg/mL) | 4 (≈ 7.41 µg/mL) | 2 (≈ 3.7 µg/mL) | 4 (≈ 7.41 µg/mL) | 2 (≈ 3.7 µg/mL) | > 90 | > 128 | 128 | 2 (≈ 3.7 µg/mL) | 4 (≈ 7.41 µg/mL) | 2 (≈ 3.7 µg/mL) | 1 (≈ 1.85 µg/mL)
CC[C@H]1OC(=O)[C@H](C)[C@@H](O[C@H]2C[C@@](C)(OC)[C@@H](O)[C@H](C)O2)[C@H](C)[C@@H](O[C@@H]2O[C@H](C)C[C@H](N(C)C)[C@H]2O)[C@](C)(O)C[C@@H](C)C(=O)[C@H](C)[C@@H](O)[C@]1(C)O [ERYTHROMYCIN] | 32 (≈ 23.5 µg/mL) | 0.5 (≈ 0.367 µg/mL) | 64 (≈ 47 µg/mL) | 32 (≈ 23.5 µg/mL) | 0.5 (≈ 0.367 µg/mL) | > 128 | 0.25 (≈ 0.183 µg/mL) |  |  |  | 32 (≈ 23.5 µg/mL) | 128 (≈ 93.9 µg/mL) | > 128 | 1 (≈ 0.734 µg/mL)
CN[C@H](CC(C)C)C(=O)N[C@H]1C(=O)N[C@@H](CC(N)=O)C(=O)N[C@H]2C(=O)N[C@H]3C(=O)N[C@H](C(=O)N[C@H](C(=O)O)c4cc(O)cc(O)c4-c4cc3ccc4O)[C@H](O)c3ccc(c(Cl)c3)Oc3cc2cc(c3O[C@@H]2O[C@H](CO)[C@@H](O)[C@H](O)[C@H]2O[C@H]2C[C@](C)(N)[C@H](O)[C@H](C)O2)Oc2ccc(cc2Cl)[C@H]1O [VANCOMYCIN] | 128 (≈ 186 µg/mL) | 0.5 (≈ 0.725 µg/mL) | 64 (≈ 92.8 µg/mL) | 128 (≈ 186 µg/mL) | 0.5 (≈ 0.725 µg/mL) | > 128 | 0.5 (≈ 0.725 µg/mL) |  |  |  | 128 (≈ 186 µg/mL) | > 128 | > 128 | 0.25 (≈ 0.362 µg/mL)
